Results reported in PubChem BioAssay (NCI).
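Five concentrations, 48 hours, 96-well plates. Abbreviation: GI50, concentration required for 50% inhibition of growth. Definition used: TGI = concentration required for complete inhibition of growth.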

Assays:
Assay in all cases: inhibition of tumour cell growth, NCI panel, 48 h
DLD-1 colon = test system: DLD-1 colon
LXFL 529 NSCLC = test system: LXFL 529 NSCLC
OVCAR-3 ovarian = test system: OVCAR-3 ovarian
HOP-92 NSCLC = test system: HOP-92 NSCLC
NCI-H226 lung = test system: NCI-H226 lung
SK-MEL-2 melanoma = test system: SK-MEL-2 melanoma
DMS 273 small cell lung = test system: DMS 273 small cell lung
BT-549 breast = test system: BT-549 breast
HS 578T breast = test system: HS 578T breast
PC-3 prostate = test system: PC-3 prostate

| SMILES | TGI (DLD-1 colon) | TGI (LXFL 529 NSCLC) | TGI (OVCAR-3 ovarian) | TGI (HOP-92 NSCLC) | TGI (NCI-H226 lung) | TGI (SK-MEL-2 melanoma) | TGI (DMS 273 small cell lung) | other results |
| --- | --- | --- | --- | --- | --- | --- | --- | --- |
| O=C1C=CC(=Nc2ccc3c(c2)C(Br)c2ccccc2-3)O1 (stereo unspecified) | > 100 µM | > 100 µM | > 100 µM | – | – | – | – | – |
| CC1=C(C(=O)Nc2ccc([N+](=O)[O-])cc2)C(c2ccc(N(C)C)cc2)C(C(=O)Nc2ccc([N+](=O)[O-])cc2)=C(C)N1 | 30 µM | 71.4 µM | 34.5 µM | 47.7 µM | 42.3 µM | 29.8 µM | – | – |
| COc1ccc(OC)c(NC(=O)C(=O)C(C(C)=O)c2nc3ccc(Cl)cc3[nH]c2=O)c1 (stereo unspecified) | > 50 µM | > 50 µM | > 50 µM | > 50 µM | > 50 µM | > 50 µM | > 50 µM | – |
| Clc1ccc(C2N3CCCCC3[C@@H]3c4[nH]c5ccccc5c4CCN23)cc1 (stereo partly specified) | > 100 µM | > 100 µM | > 100 µM | > 100 µM | – | > 100 µM | > 100 µM | – |
| CC12CC[C@@H](C(C)(C)O)C1[C@@H](O)CC1(C)C2CCC2[C@@]3(C)CC[C@H](O)C(C)(C)C3C(O)C[C@]21C (stereo partly specified) | 53.3 µM | 29.4 µM | 35.3 µM | 37.5 µM | – | 36.8 µM | – | – |
| CCCCCCCCCCCCCC(=O)OC1CC(=O)OC1CO (stereo unspecified) | > 100 µM | > 100 µM | > 100 µM | 43.1 µM | – | > 100 µM | > 100 µM | – |
| O=C(N/N=C/c1ccccc1O)c1cccc([N+](=O)[O-])c1 | > 100 µM | > 100 µM | 6.73 µM | – | – | > 100 µM | > 100 µM | – |
| N#CC(C(=N/O)/C(=N/O)C(C#N)c1ccc(Cl)cc1)c1ccc(Cl)cc1 (stereo unspecified) | > 100 µM | > 100 µM | > 100 µM | > 100 µM | > 100 µM | > 100 µM | > 100 µM | – |
| CCN(CC)c1c(C(=O)/C=C/c2ccccc2)c(-c2ccccc2)nn(C)c1=O | > 100 µM | > 100 µM | – | > 100 µM | > 100 µM | – | > 100 µM | – |
| OCCC1(O)CCC(O)CC1 (stereo unspecified) | > 100 µM | > 100 µM | > 100 µM | > 100 µM | > 100 µM | > 100 µM | > 100 µM | – |
| CC1(C)CC(/C=C2/OC(=O)c3ccccc32)=C(C#N)C(=O)O1 | > 100 µM | > 100 µM | > 100 µM | – | > 100 µM | > 100 µM | > 100 µM | – |
| Cc1ccc(S(=O)(=O)C(CC(=O)N2CCCC2)C(=O)c2ccccc2)cc1 (stereo unspecified) | > 100 µM | > 100 µM | > 100 µM | > 100 µM | – | – | > 100 µM | – |
| COC1C(CN[N+](=O)CC2OC3OC(C)(C)OC3C2OC)OC2OC(C)(C)OC21 (stereo unspecified) | > 100 µM | – | > 100 µM | > 100 µM | > 100 µM | > 100 µM | > 100 µM | – |
| CCCCNC1=C(C(=O)OCC)C(=O)CO1 | > 100 µM | > 100 µM | > 100 µM | – | > 100 µM | > 100 µM | > 100 µM | – |
| CCOC(=O)NC(=O)c1cn(C2OC(COC(=O)CCCCCCCCC(=O)OCC3OC(n4cc(C(=O)NC(=O)OCC)c(=O)[nH]c4=O)C(O)C3O)C(O)C2O)c(=O)[nH]c1=O (stereo unspecified) | > 100 µM | > 100 µM | > 100 µM | – | > 100 µM | > 100 µM | > 100 µM | – |
| N=C1CSC2=NC3=C(CCC/C3=C\c3ccccc3)C(c3ccccc3)N12 (stereo unspecified) | 19.4 µM | 17 µM | 8.24 µM | – | 35.1 µM | 5.56 µM | 15.8 µM | – |
| CN(C(=O)C12C3C4C1C1C2C3C41C(=O)C(C)(C)C)C(C)(C)C (stereo unspecified) | > 100 µM | > 100 µM | > 100 µM | – | – | > 100 µM | > 100 µM | – |
| CC(C)CC(=O)[O-].CC(C)CC(=O)[O-].N.N.N.N.[Co+3].[O-][Cl+3]([O-])([O-])[O-] | > 100 µM | > 100 µM | > 100 µM | > 100 µM | – | > 100 µM | > 100 µM | GI50 (DLD-1 colon): > 100 µM; GI50 (DMS 273 small cell lung): > 100 µM; GI50 (HOP-92 NSCLC): > 100 µM; GI50 (LXFL 529 NSCLC): > 100 µM; GI50 (OVCAR-3 ovarian): > 100 µM; GI50 (SK-MEL-2 melanoma): > 100 µM |
| CCOc1ccc2c(c1)[n+]([O-])c(S(=O)(=O)c1ccc(C)cc1)c(N)[n+]2[O-] | > 100 µM | > 100 µM | > 100 µM | > 100 µM | > 100 µM | > 100 µM | – | – |
| O=C1/C(=C/c2ccc(Cl)cc2Cl)N=C(c2ccccc2)N1Cc1ccco1 | – | – | 45.5 µM | 47.4 µM | 67.6 µM | 48.5 µM | – | GI50 (BT-549 breast): 27.4 µM; TGI (BT-549 breast): 87.9 µM; GI50 (HOP-92 NSCLC): 20.7 µM; GI50 (HS 578T breast): 22.7 µM; TGI (HS 578T breast): 65 µM; GI50 (NCI-H226 lung): 23.9 µM; GI50 (OVCAR-3 ovarian): 22.6 µM; GI50 (PC-3 prostate): 30.8 µM; TGI (PC-3 prostate): 93.9 µM; GI50 (SK-MEL-2 melanoma): 15.8 µM |
| COc1cnc2cc(C(=O)O)c3c([N+](=O)[O-])cccc3c2c1 | – | – | > 100 µM | > 100 µM | > 100 µM | > 100 µM | – | TGI (BT-549 breast): > 100 µM; TGI (HS 578T breast): > 100 µM; TGI (PC-3 prostate): > 100 µM |
